In patent US20230257396A1, “MACROCYCLES AND THEIR USE” (BLOSSOMHILL THERAPEUTICS, INC., priority 2020, published 2023):

Key:
Assay in all cases: KINOMEscan kinase binding assay (Eurofins/DiscoveRx), % Ctrl
Conditions in all cases: 1 μM
kinases [1] = target: T1, kinases (Homo sapiens, UniProt P10721, D816H)
T1 construct: purchased Eurofins/DiscoveRx; host or cells: E. coli BL21-derived host (T7 phage display) for most kinases; HEK-293 for the rest
How it was run: (§1)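 Read-out is qPCR of kinase eluted from ligand-coated streptavidin beads after 1 h room-temperature competition with test compound. Values are % Ctrl at the tested concentration, lower meaning tighter binding.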

kinases [2] = target: T2, kinases (Homo sapiens, UniProt P36888)
T2 construct: purchased Eurofins/DiscoveRx; host or cells: E. coli BL21-derived host (T7 phage display) for most kinases; HEK-293 for the rest
T2 sequence (P36888 27-993): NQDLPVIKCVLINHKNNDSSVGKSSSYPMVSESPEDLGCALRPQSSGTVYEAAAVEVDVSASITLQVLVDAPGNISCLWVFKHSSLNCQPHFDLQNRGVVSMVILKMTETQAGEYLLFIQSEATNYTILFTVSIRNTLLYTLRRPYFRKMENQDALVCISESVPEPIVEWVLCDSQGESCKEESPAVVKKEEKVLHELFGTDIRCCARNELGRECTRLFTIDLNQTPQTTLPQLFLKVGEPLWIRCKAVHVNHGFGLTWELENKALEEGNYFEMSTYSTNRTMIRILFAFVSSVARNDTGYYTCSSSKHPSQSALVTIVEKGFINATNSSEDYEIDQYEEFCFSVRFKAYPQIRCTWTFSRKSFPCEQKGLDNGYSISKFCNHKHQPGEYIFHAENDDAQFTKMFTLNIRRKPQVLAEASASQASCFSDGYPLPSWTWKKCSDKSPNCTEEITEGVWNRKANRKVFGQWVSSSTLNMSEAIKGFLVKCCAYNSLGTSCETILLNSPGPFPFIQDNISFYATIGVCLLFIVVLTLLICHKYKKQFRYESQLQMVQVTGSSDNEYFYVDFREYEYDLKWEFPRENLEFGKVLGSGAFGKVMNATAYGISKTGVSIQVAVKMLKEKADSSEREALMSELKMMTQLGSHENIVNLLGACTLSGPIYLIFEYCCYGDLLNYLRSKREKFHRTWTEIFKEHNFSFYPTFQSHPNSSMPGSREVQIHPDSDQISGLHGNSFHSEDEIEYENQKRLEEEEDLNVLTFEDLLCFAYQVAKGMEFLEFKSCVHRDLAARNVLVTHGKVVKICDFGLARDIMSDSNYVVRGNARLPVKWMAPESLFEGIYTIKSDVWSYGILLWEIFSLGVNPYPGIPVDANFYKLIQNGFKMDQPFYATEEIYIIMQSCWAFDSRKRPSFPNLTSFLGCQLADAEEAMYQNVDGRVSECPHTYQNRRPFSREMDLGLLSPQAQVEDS
How it was run: as §1

kinases [3] = target: T3, kinases (Homo sapiens, UniProt P00533, DEL752-759)
T3 construct: purchased Eurofins/DiscoveRx; host or cells: E. coli BL21-derived host (T7 phage display) for most kinases; HEK-293 for the rest
How it was run: as §1

kinases [4] = target: T4, kinases (Homo sapiens, UniProt P07949, V804M)
T4 construct: purchased Eurofins/DiscoveRx; host or cells: E. coli BL21-derived host (T7 phage display) for most kinases; HEK-293 for the rest
How it was run: as §1

kinases [5] = target: T5, kinases (Homo sapiens, UniProt P00519, H396P)
T5 construct: purchased Eurofins/DiscoveRx; host or cells: E. coli BL21-derived host (T7 phage display) for most kinases; HEK-293 for the rest
How it was run: as §1

kinases [6] = target: T6, kinases (Homo sapiens, UniProt P42684)
T6 construct: purchased Eurofins/DiscoveRx; host or cells: E. coli BL21-derived host (T7 phage display) for most kinases; HEK-293 for the rest
How it was run: as §1

kinases [7] = target: T7, kinases (Homo sapiens, UniProt P07949, V804L)
T7 construct: purchased Eurofins/DiscoveRx; host or cells: E. coli BL21-derived host (T7 phage display) for most kinases; HEK-293 for the rest
How it was run: as §1

kinases [8] = target: T8, kinases (Homo sapiens, UniProt P35916)
T8 construct: purchased Eurofins/DiscoveRx; host or cells: E. coli BL21-derived host (T7 phage display) for most kinases; HEK-293 for the rest
How it was run: as §1

kinases [9] = target: T9, kinases (Homo sapiens, UniProt P10721)
T9 construct: purchased Eurofins/DiscoveRx; host or cells: E. coli BL21-derived host (T7 phage display) for most kinases; HEK-293 for the rest
How it was run: as §1

kinases [10] = target: T10, kinases (Homo sapiens, UniProt P09619)
T10 construct: purchased Eurofins/DiscoveRx; host or cells: E. coli BL21-derived host (T7 phage display) for most kinases; HEK-293 for the rest
How it was run: as §1

kinases [11] = target: T11, kinases (Homo sapiens, UniProt P10721, V559D)
T11 construct: purchased Eurofins/DiscoveRx; host or cells: E. coli BL21-derived host (T7 phage display) for most kinases; HEK-293 for the rest
How it was run: as §1

kinases [12] = target: T12, kinases (Homo sapiens, UniProt P00519, M351T)
T12 construct: purchased Eurofins/DiscoveRx; host or cells: E. coli BL21-derived host (T7 phage display) for most kinases; HEK-293 for the rest
How it was run: as §1

kinases [13] = target: T13, kinases (Homo sapiens, UniProt P00533, T790M)
T13 construct: purchased Eurofins/DiscoveRx; host or cells: E. coli BL21-derived host (T7 phage display) for most kinases; HEK-293 for the rest
How it was run: as §1

kinases [14] = target: T14, kinases (Homo sapiens, UniProt P00533, L861Q)
T14 construct: purchased Eurofins/DiscoveRx; host or cells: E. coli BL21-derived host (T7 phage display) for most kinases; HEK-293 for the rest
How it was run: as §1

kinases [15] = target: T15, kinases (Homo sapiens, UniProt P07949, M918T)
T15 construct: purchased Eurofins/DiscoveRx; host or cells: E. coli BL21-derived host (T7 phage display) for most kinases; HEK-293 for the rest
How it was run: as §1

T6 sequence (P42684 whole entry): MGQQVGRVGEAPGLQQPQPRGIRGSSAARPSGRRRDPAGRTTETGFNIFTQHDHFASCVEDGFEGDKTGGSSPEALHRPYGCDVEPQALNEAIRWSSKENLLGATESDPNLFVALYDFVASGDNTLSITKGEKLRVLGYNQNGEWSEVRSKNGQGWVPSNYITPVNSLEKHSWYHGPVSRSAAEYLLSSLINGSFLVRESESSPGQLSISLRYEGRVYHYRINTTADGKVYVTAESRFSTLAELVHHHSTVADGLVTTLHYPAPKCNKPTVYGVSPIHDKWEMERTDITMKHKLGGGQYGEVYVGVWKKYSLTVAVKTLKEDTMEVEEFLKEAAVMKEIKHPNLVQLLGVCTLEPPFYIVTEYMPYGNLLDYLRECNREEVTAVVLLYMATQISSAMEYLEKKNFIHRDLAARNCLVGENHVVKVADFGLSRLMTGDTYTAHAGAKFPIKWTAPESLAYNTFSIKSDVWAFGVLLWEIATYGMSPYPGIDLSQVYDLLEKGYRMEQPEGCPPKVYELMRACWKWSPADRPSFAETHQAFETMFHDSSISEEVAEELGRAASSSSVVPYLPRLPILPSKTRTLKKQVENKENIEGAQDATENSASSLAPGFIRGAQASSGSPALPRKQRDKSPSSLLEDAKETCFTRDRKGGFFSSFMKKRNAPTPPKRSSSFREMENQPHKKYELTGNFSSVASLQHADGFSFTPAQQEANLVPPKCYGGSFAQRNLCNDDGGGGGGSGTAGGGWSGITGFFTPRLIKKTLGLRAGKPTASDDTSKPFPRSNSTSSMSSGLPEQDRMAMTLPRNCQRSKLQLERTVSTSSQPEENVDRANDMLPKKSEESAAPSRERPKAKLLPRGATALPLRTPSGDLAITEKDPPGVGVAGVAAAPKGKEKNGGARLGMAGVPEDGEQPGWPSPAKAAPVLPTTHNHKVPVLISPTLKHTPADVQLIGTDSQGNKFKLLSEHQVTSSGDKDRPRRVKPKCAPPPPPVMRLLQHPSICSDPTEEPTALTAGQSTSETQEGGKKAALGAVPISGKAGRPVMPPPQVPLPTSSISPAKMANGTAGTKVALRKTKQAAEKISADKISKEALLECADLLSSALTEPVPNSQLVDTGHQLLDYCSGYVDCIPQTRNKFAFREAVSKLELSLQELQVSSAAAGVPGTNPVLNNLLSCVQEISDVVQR
T7 sequence (P07949 29-1114 V804L): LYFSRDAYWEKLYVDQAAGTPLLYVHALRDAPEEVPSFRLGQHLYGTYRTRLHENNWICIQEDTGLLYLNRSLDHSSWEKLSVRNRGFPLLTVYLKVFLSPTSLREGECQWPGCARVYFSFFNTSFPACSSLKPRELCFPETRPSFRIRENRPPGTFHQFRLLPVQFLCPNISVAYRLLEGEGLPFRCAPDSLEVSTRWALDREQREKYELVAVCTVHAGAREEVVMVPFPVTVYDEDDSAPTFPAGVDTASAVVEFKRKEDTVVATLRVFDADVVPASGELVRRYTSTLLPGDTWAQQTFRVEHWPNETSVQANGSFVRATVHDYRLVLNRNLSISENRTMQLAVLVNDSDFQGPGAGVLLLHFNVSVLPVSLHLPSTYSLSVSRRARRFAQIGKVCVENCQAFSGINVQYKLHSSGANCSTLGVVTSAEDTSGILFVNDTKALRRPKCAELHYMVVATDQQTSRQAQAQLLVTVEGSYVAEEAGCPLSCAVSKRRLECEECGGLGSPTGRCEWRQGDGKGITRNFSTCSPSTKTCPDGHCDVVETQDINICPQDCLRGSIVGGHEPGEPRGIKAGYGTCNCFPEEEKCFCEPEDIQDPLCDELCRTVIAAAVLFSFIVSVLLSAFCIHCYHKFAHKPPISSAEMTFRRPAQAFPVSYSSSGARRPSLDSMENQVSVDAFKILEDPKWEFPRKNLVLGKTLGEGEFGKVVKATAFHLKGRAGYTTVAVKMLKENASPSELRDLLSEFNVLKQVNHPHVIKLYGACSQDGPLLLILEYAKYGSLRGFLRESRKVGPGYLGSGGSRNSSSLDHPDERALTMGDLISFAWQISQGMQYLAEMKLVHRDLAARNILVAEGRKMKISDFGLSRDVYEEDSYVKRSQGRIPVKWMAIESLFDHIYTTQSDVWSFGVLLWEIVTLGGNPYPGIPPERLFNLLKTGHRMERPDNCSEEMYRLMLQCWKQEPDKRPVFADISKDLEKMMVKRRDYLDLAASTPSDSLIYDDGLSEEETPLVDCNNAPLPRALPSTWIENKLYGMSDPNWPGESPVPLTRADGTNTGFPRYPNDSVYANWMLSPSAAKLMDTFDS
T9 sequence (P10721 26-976): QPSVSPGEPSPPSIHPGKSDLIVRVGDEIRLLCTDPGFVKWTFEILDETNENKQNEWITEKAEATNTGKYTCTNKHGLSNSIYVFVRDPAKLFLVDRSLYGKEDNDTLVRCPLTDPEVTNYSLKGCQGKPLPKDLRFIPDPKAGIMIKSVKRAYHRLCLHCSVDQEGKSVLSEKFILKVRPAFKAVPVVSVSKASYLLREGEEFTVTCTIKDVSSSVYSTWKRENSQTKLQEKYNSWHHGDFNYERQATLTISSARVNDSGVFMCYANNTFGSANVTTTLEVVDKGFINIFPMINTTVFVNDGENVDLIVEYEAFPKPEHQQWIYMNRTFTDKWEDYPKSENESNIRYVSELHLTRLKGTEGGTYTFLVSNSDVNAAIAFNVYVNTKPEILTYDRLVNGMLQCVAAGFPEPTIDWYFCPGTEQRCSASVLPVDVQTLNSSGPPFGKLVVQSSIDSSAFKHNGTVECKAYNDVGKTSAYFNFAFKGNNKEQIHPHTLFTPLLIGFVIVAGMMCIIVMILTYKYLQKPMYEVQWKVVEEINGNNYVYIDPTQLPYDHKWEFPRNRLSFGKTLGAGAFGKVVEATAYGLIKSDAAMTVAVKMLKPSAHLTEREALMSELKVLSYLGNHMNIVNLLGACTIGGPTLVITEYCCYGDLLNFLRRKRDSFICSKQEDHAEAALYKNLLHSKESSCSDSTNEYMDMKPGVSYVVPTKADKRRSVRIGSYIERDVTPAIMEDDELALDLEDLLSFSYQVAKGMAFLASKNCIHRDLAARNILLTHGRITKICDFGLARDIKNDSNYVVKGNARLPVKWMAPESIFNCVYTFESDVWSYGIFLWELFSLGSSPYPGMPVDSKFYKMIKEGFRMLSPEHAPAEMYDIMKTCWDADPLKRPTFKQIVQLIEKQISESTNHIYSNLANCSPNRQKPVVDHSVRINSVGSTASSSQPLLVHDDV
T15 sequence (P07949 29-1114 M918T): as the sequence (P07949 29-1114 V804L) above, with L776V, M890T counted along it
T1 sequence (P10721 26-976 D816H): as the sequence (P10721 26-976) above, with D791H counted along it
T4 sequence (P07949 29-1114 V804M): as the sequence (P07949 29-1114 V804L) above, with L776M counted along it
T8 sequence (P35916 25-1363): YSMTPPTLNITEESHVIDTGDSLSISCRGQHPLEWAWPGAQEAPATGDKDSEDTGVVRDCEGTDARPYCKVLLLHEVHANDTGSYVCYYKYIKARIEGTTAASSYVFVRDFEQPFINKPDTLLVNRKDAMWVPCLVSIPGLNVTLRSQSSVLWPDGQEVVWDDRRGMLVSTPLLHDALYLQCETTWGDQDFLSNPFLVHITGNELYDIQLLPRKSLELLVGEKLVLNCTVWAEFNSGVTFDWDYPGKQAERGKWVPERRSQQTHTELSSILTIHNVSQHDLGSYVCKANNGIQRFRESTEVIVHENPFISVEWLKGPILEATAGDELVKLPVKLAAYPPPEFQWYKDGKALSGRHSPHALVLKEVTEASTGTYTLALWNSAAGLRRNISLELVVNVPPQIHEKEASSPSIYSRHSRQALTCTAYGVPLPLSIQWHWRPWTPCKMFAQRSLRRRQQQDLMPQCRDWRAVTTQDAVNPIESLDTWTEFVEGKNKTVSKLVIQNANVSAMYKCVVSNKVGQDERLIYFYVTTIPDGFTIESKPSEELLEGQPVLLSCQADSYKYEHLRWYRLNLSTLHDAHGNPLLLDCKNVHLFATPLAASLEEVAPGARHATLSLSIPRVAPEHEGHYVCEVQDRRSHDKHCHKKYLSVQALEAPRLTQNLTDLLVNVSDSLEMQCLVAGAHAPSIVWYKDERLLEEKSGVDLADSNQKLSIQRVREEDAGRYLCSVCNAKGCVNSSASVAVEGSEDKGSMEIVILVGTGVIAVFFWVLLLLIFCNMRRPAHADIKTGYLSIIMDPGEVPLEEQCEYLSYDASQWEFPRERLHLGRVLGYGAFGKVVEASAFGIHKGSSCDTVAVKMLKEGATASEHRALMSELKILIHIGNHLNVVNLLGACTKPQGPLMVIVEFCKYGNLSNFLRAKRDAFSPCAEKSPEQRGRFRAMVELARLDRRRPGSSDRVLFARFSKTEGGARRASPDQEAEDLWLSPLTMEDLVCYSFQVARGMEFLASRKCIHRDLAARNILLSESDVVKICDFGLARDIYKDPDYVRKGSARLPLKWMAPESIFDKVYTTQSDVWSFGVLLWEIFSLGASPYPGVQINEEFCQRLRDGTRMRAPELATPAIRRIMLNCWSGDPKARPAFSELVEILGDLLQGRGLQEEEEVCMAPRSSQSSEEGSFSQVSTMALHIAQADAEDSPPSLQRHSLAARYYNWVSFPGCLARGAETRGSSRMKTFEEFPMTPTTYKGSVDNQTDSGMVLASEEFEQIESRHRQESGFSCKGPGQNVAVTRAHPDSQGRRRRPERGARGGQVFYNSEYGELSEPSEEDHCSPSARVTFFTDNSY
T11 sequence (P10721 26-976 V559D): as the sequence (P10721 26-976) above, with V534D counted along it

% Ctrl, KIT(D816H) (kinases [1]; KIT(D816H))	% Ctrl, FLT3 (kinases [2]; FLT3)	% Ctrl, FLT3-autoinhibited (kinases [2]; FLT3-autoinhibited)	% Ctrl, EGFR(S752-I759del) (kinases [3]; EGFR(S752-I759del))	% Ctrl, RET(V804M) (kinases [4]; RET(V804M))	% Ctrl, ABL1(H396P)-nonphosphorylated (kinases [5]; ABL1(H396P)-nonphosphorylated)	% Ctrl, ABL1(H396P)-phosphorylated (kinases [5]; ABL1(H396P)-phosphorylated)	% Ctrl, ABL2 (kinases [6]; ABL2)	% Ctrl, RET(V804L) (kinases [7]; RET(V804L))	% Ctrl, FLT4 (kinases [8]; FLT4)	% Ctrl, KIT (kinases [9]; KIT)	% Ctrl, KIT-autoinhibited (kinases [9]; KIT-autoinhibited)	% Ctrl, PDGFRB (kinases [10]; PDGFRB)	% Ctrl, KIT(V559D) (kinases [11]; KIT(V559D))	% Ctrl, ABL1(M351T)-phosphorylated (kinases [12]; ABL1(M351T)-phosphorylated)	% Ctrl, EGFR(T790M) (kinases [13]; EGFR(T790M))	% Ctrl, EGFR(L861Q) (kinases [14]; EGFR(L861Q))	% Ctrl, RET(M918T) (kinases [15]; RET(M918T))	SMILES	further results
56 % Ctrl	48 % Ctrl	95 % Ctrl	88 % Ctrl	81 % Ctrl	25 % Ctrl	35 % Ctrl	77 % Ctrl	55 % Ctrl	90 % Ctrl	60 % Ctrl	94 % Ctrl	66 % Ctrl	43 % Ctrl	25 % Ctrl	92 % Ctrl	95 % Ctrl	32 % Ctrl	Cc1cc2c([nH]1)/C=C1\C(=O)Nc3cc(Cl)c(cc31)OCCO[C@@H](C(=O)NC1CCNCC1)CN(C)C2=O [Ex. 134, [7R,16a(17)Z]-19-chloro-2,5-dimethyl-4,16-dioxo-N-(piperidin-4-yl)-4,5,6,7,9,10,15,16-octahydro-1H-12,14-(ethaneidylidene)dipyrrolo[3,2-i:3′,4′-l][1,4,7]dioxazacyclopentadecine-7-carboxamide]	
100 % Ctrl	87 % Ctrl	100 % Ctrl	93 % Ctrl	99 % Ctrl	100 % Ctrl	100 % Ctrl	100 % Ctrl	89 % Ctrl	94 % Ctrl	97 % Ctrl	97 % Ctrl	94 % Ctrl	99 % Ctrl	100 % Ctrl	100 % Ctrl	100 % Ctrl	89 % Ctrl	Cc1cc2c([nH]1)/C=C1\C(=O)Nc3cnc(cc31)-c1cnn(C)c1COCCNC2=O [Ex.123, [3a(4)Z]-6,14-dimethyl-10,11,13,14-tetrahydro-2H-17,1-(azenometheno)pyrazolo[4,3-m]dipyrrolo[3,2-f:3′,4′-i][1,4]oxazacyclopentadecine-3,8(5H,9H)-dione]	
38 % Ctrl	5.5 % Ctrl	50 % Ctrl	89 % Ctrl	19 % Ctrl	6.1 % Ctrl	5 % Ctrl	77 % Ctrl	17 % Ctrl	62 % Ctrl	58 % Ctrl	78 % Ctrl	5.5 % Ctrl	64 % Ctrl	53 % Ctrl	36 % Ctrl	91 % Ctrl	45 % Ctrl	Cc1cc2c([nH]1)/C=C1\C(=O)Nc3ccc(cc31)-c1ccnn1CCOCCN(C)C2=O [Ex. 41, [19a(20)Z]-2,5-dimethyl-6,7,9,10-tetrahydro-1H-15,17-(ethanediylidene)pyrazolo[1,5-d]dipyrrolo[3,4-h:2′,3′-k][1,4,14]oxadiazacyclohexadecine-4,19(5H,18H)-dione]	
																		CN1CCOCCOc2cc3c(cc2Cl)NC(=O)/C3=C\c2[nH]ccc2C1=O [Ex. 143, [16a(17)Z]-19-chloro-2,5-dimethyl-6,7,9,10-tetrahydro-1H-12,14-(ethanediylidene)dipyrrolo[3,2-i:3′,4′-l][1,4,7]oxathiazacyclopentadecine-4,16(5H,15H)-dione]	% Ctrl, KIT(D816H) (kinases [1]; target KIT(D816H)): 59 % Ctrl; % Ctrl, FLT3-autoinhibited (kinases [2]; target FLT3-autoinhibited): 62 % Ctrl; % Ctrl, FLT3 (kinases [2]; target FLT3): 15 % Ctrl; % Ctrl, EGFR(S752-I759del) (kinases [3]; target EGFR(S752-I759del)): 86 % Ctrl; % Ctrl, RET(V804M) (kinases [4]; target RET(V804M)): 31 % Ctrl; % Ctrl, ABL1(H396P)-nonphosphorylated (kinases [5]; target ABL1(H396P)-nonphosphorylated): 1.6 % Ctrl; % Ctrl, ABL1(H396P)-phosphorylated (kinases [5]; target ABL1(H396P)-phosphorylated): 11 % Ctrl; % Ctrl, ABL2 (kinases [6]; target ABL2): 40 % Ctrl; % Ctrl, RET(V804L) (kinases [7]; target RET(V804L)): 3.5 % Ctrl; % Ctrl, FLT4 (kinases [8]; target FLT4): 39 % Ctrl; % Ctrl, KIT-autoinhibited (kinases [9]; target KIT-autoinhibited): 40 % Ctrl; % Ctrl, KIT (kinases [9]; target KIT): 9.9 % Ctrl; % Ctrl, PDGFRB (kinases [10]; target PDGFRB): 32 % Ctrl; % Ctrl, KIT(V559D) (kinases [11]; target KIT(V559D)): 5.4 % Ctrl; % Ctrl, ABL1(M351T)-phosphorylated (kinases [12]; target ABL1(M351T)-phosphorylated): 13 % Ctrl; % Ctrl, EGFR(T790M) (kinases [13]; target EGFR(T790M)): 100 % Ctrl; % Ctrl, EGFR(L861Q) (kinases [14]; target EGFR(L861Q)): 100 % Ctrl; % Ctrl, RET(M918T) (kinases [15]; target RET(M918T)): 0.7 % Ctrl
87 % Ctrl	77 % Ctrl	96 % Ctrl	90 % Ctrl	43 % Ctrl	0.3 % Ctrl	46 % Ctrl	43 % Ctrl	43 % Ctrl	75 % Ctrl	91 % Ctrl	100 % Ctrl	71 % Ctrl	91 % Ctrl	54 % Ctrl	100 % Ctrl	100 % Ctrl	59 % Ctrl	Cc1cc2c([nH]1)/C=C1\C(=O)Nc3ccc(cc31)O[C@@H](C)COCCN(C)C2=O [Ex. 92, [10S,16a(17)Z]-2,5,10-trimethyl-6,7,9,10-tetrahydro-1H-12,14-(ethanediylidene)dipyrrolo[3,2-i:3′,4′-l][1,4,7]dioxazacyclopentadecine-4,16(5H,15H)-dione]	
